≈ marks a conversion by molar mass, not a printed value.
Columns and labels:
[1] = test system: Staphylococcus aureus ATCC 29213 (DRCC 035, S); experiment: MIC by broth microdilution, S. aureus DRCC 035 (S); type: cell-based; conditions: ATCC29213, Mueller Hinton Broth, overnight 37° C., strain DRCC 035 (ATCC 29213), read-out: Antimicrobial Screening (MIC) Staphylococcus aureus 035 S
Experimental: (§1) Minimum Inhibiton Concentrations (MICs) were determined by broth microdilution technique as per the guidelines prescribed om the fifth edition of Approved Standards, NCCLS document M7-A5 Vol 20-No 2, 2000 Villinova, Pa.
(§2) Initial stock solution of the test compound was prepared in DMSO. Subsequent two fold dilutions were carried out in sterile Mueller Hinton Broth (Difco) (MHB).
(§3) Frozen cultures stocks were inoculated into 50 ml sterile MHB in 250 ml Erlyn Meyer flasks.
(§4) Composition of MHB is as follows:
(§5) Flasks were incubated for 4 to 5 h at 35° C. on a rotary shaker at 150 rpm. Inoculum was prepared by diluting the culture in sterile MHB to obtain a turbidity of 0.5 McFarland standard. This corresponds to 1–2×10^8 CFU/ml. The stock was further diluted in sterile broth to obtain 1–2×10^6 CFU/ml. 50 μl of the above diluted inoculum was added from 1–10 wells. The plates were incubated overnight at 37° C.

[2] = test system: Enterococcus faecium NCTC 12202 (DRCC 154, R); experiment: MIC by broth microdilution, Enterococcus DRCC 154 (R); type: cell-based; conditions: NCTC12202, Mueller Hinton Broth, overnight 37° C., strain DRCC 154 (E. faecium NCTC 12202), read-out: Antimicrobial Screening (MIC) Enterococcus sp 154 R
Experimental: as §1, §2, §3, §4, §5

[3] = test system: Enterococcus faecalis ATCC 29212 (DRCC 034, S); experiment: MIC by broth microdilution, Enterococcus DRCC 034 (S); type: cell-based; conditions: ATCC29212, Mueller Hinton Broth, overnight 37° C., strain DRCC 034 (E. faecalis ATCC 29212), read-out: Antimicrobial Screening (MIC) Enterococcus sp 034 S
Experimental: as §1, §2, §3, §4, §5

[4] = test system: Staphylococcus aureus ATCC 33591 (DRCC 019, MRSA); experiment: MIC by broth microdilution, S. aureus DRCC 019 (MRSA); type: cell-based; conditions: Mueller Hinton Broth, overnight 37° C., strain DRCC 019 (ATCC 33591), read-out: Antimicrobial Screening (MIC) Staphylococcus aureus 019 MRSA
Experimental: as §1, §2, §3, §4, §5

[5] = test system: Enterococcus faecalis NCTC 12201 (DRCC 153, R); experiment: MIC by broth microdilution, Enterococcus DRCC 153 (R); type: cell-based; conditions: NCTC12201, Mueller Hinton Broth, overnight 37° C., strain DRCC 153 (E. faecalis NCTC 12201), read-out: Antimicrobial Screening (MIC) Enterococcus sp 153 R
Experimental: as §1, §2, §3, §4, §5

[6] = test system: Staphylococcus aureus ATCC 49951 (DRCC 213, Smith S); experiment: MIC by broth microdilution, S. aureus DRCC 213 (Smith S); type: cell-based; conditions: ATCC49951, Mueller Hinton Broth, overnight 37° C., strain DRCC 213 (ATCC 49951), read-out: Antimicrobial Screening (MIC) Staphylococcus aureus 213 Smith S
Experimental: as §1, §2, §3, §4, §5

[7] = test system: Escherichia coli ATCC 25922 (DRCC 018, S); experiment: MIC by broth microdilution, E coli DRCC 018 (S); type: cell-based; conditions: ATCC25922, Mueller Hinton Broth, overnight 37° C., strain DRCC 018 (ATCC 25922), read-out: Antimicrobial Screening (MIC) E coli 18 S
Experimental: as §1, §2, §3, §4, §5

| Compound | MIC [1] | MIC [2] | MIC [3] | MIC [4] | MIC [5] | MIC [6] | MIC [7] | melting point |
| --- | --- | --- | --- | --- | --- | --- | --- | --- |
| CC(=O)NC[C@H]1CN(c2ccc(N3CCOC3=O)c(F)c2)C(=O)O1 [Example 40] | 8 µg/mL (≈ 23.7 µM) | 8 µg/mL (≈ 23.7 µM) | 16 µg/mL (≈ 47.4 µM) | 8 µg/mL (≈ 23.7 µM) | 8 µg/mL (≈ 23.7 µM) | 4 µg/mL (≈ 11.9 µM) | 32 µg/mL (≈ 94.9 µM) | – |
| CC(=O)NC[C@H]1CN(c2ccc(N3CCOC3=O)cc2)C(=O)O1 [Example 62] | 4 µg/mL (≈ 12.5 µM) | 8 µg/mL (≈ 25.1 µM) | – | 2 µg/mL (≈ 6.26 µM) | 8 µg/mL (≈ 25.1 µM) | 1 µg/mL (≈ 3.13 µM) | 32 µg/mL (≈ 100 µM) | – |
| CC(=S)NC[C@H]1CN(c2cc(F)c(N3CCOC3=O)c(F)c2)C(=O)O1 [Example 76] | 4 µg/mL (≈ 10.8 µM) | 4 µg/mL (≈ 10.8 µM) | 4 µg/mL (≈ 10.8 µM) | 2 µg/mL (≈ 5.39 µM) | 4 µg/mL (≈ 10.8 µM) | 2 µg/mL (≈ 5.39 µM) | > 32 µg/mL | – |
| CC(=S)NC[C@H]1CN(c2cc(F)c(N3CCOC3=O)c(F)c2)C(=O)O1 [Example 77] | – | – | – | – | – | – | – | 168 °C |
| CC(=S)NC[C@H]1CN(c2ccc(N3CCN(C)C3=O)c(F)c2)C(=O)O1 [Example 79] | 4 µg/mL (≈ 10.9 µM) | 8 µg/mL (≈ 21.8 µM) | 4 µg/mL (≈ 10.9 µM) | 2 µg/mL (≈ 5.46 µM) | 8 µg/mL (≈ 21.8 µM) | 2 µg/mL (≈ 5.46 µM) | 32 µg/mL (≈ 87.3 µM) | – |
| COC(=S)NC[C@H]1CN(c2ccc(N3CCOC3=O)c(F)c2)C(=O)O1 [Example 88] | 2 µg/mL (≈ 5.41 µM) | 2 µg/mL (≈ 5.41 µM) | 2 µg/mL (≈ 5.41 µM) | 1 µg/mL (≈ 2.71 µM) | 2 µg/mL (≈ 5.41 µM) | 1 µg/mL (≈ 2.71 µM) | > 32 µg/mL | – |
| CCOC(=S)NC[C@H]1CN(c2ccc(N3CCOC3=O)c(F)c2)C(=O)O1 [Example 89] | 4 µg/mL (≈ 10.4 µM) | 8 µg/mL (≈ 20.9 µM) | 8 µg/mL (≈ 20.9 µM) | 4 µg/mL (≈ 10.4 µM) | 8 µg/mL (≈ 20.9 µM) | 4 µg/mL (≈ 10.4 µM) | > 32 µg/mL | – |
| COC(=S)NC[C@H]1CN(c2ccc(N3CCOC3=S)c(F)c2)C(=O)O1 [Example 92] | – | – | – | – | – | – | – | 197 °C |
| COC(=S)NC[C@H]1CN(c2cc(F)c(N3CCOC3=O)c(F)c2)C(=O)O1 [Example 99] | 2 µg/mL (≈ 5.16 µM) | 2 µg/mL (≈ 5.16 µM) | 2 µg/mL (≈ 5.16 µM) | 2 µg/mL (≈ 5.16 µM) | 2 µg/mL (≈ 5.16 µM) | 2 µg/mL (≈ 5.16 µM) | > 32 µg/mL | – |
| COC(=S)NC[C@H]1CN(c2ccc(N3CCOC3=O)cc2)C(=O)O1 [Example 100] | 0.5 µg/mL (≈ 1.42 µM) | 1 µg/mL (≈ 2.85 µM) | 1 µg/mL (≈ 2.85 µM) | 0.5 µg/mL (≈ 1.42 µM) | 1 µg/mL (≈ 2.85 µM) | 0.5 µg/mL (≈ 1.42 µM) | 32 µg/mL (≈ 91.1 µM) | – |
| CC(C)OC(=S)NC[C@H]1CN(c2ccc(N3CCOC3=O)cc2)C(=O)O1 [Example 107] | 4 µg/mL (≈ 10.5 µM) | 4 µg/mL (≈ 10.5 µM) | 8 µg/mL (≈ 21.1 µM) | 2 µg/mL (≈ 5.27 µM) | 4 µg/mL (≈ 10.5 µM) | 4 µg/mL (≈ 10.5 µM) | 32 µg/mL (≈ 84.3 µM) | – |
| COC(=S)NC[C@H]1CN(c2ccc(N3CC(=O)N(C)C3)c(F)c2)C(=O)O1 [Example 110] | 0.5 µg/mL (≈ 1.31 µM) | 1 µg/mL (≈ 2.61 µM) | 1 µg/mL (≈ 2.61 µM) | 0.5 µg/mL (≈ 1.31 µM) | 1 µg/mL (≈ 2.61 µM) | 0.5 µg/mL (≈ 1.31 µM) | 32 µg/mL (≈ 83.7 µM) | – |
| COC(=S)NC[C@H]1CN(c2ccc(N3CCN(C)C3=O)c(F)c2)C(=O)O1 [Example 113] | 4 µg/mL (≈ 10.5 µM) | 8 µg/mL (≈ 20.9 µM) | 4 µg/mL (≈ 10.5 µM) | 2 µg/mL (≈ 5.23 µM) | 4 µg/mL (≈ 10.5 µM) | 4 µg/mL (≈ 10.5 µM) | 32 µg/mL (≈ 83.7 µM) | – |
| COC(=S)NC[C@H]1CN(c2ccc(N3CCN(Cc4ccccc4)C3=O)cc2)C(=O)O1 [Example 115] | – | – | – | – | – | – | – | 160 °C |
| COC(=S)NC[C@H]1CN(c2ccc(N3CCN(Cc4ccccc4)C3=O)c(F)c2)C(=O)O1 [Example 116] | – | – | – | – | – | – | – | 174 °C |
| COC(=S)NC[C@H]1CN(c2ccc(N3CCN(c4ccccc4)C3=O)c(F)c2)C(=O)O1 [Example 117] | – | – | – | – | – | – | – | 195 °C |
| COC(=S)NC[C@H]1CN(c2ccc(N3CC(=O)N(Cc4ccccc4)C3)c(F)c2)C(=O)O1 [Example 123] | – | – | – | – | – | – | – | 192 °C |
| COC(=S)NC[C@H]1CN(c2ccc(N3CC(=O)N(CO)C3)c(F)c2)C(=O)O1 [Example 124] | 0.5 µg/mL (≈ 1.25 µM) | 0.5 µg/mL (≈ 1.25 µM) | 0.5 µg/mL (≈ 1.25 µM) | 0.25 µg/mL (≈ 0.627 µM) | 0.25 µg/mL (≈ 0.627 µM) | 0.25 µg/mL (≈ 0.627 µM) | – | – |
| COC(=S)NC[C@H]1CN(c2ccc(N3CC(=S)N(C)C3)c(F)c2)C(=O)O1 [Example 125] | 0.5 µg/mL (≈ 1.25 µM) | 0.5 µg/mL (≈ 1.25 µM) | 0.5 µg/mL (≈ 1.25 µM) | 0.25 µg/mL (≈ 0.627 µM) | 0.25 µg/mL (≈ 0.627 µM) | 0.25 µg/mL (≈ 0.627 µM) | – | – |
| COC(=S)NC[C@H]1CN(c2ccc(N3CC(=S)N(C)C3)c(F)c2)C(=O)O1 [Example 126] | – | – | – | – | – | – | – | 223 °C |
| COCN1CN(c2ccc(N3C[C@H](CNC(=S)OC)OC3=O)cc2F)CC1=O [Example 127] | 1 µg/mL (≈ 2.42 µM) | 1 µg/mL (≈ 2.42 µM) | 1 µg/mL (≈ 2.42 µM) | 0.5 µg/mL (≈ 1.21 µM) | 1 µg/mL (≈ 2.42 µM) | 1 µg/mL (≈ 2.42 µM) | – | – |

Source: US7183301B2, “Heterocyclic compounds having antibacterial activity: process for their preparation and pharmaceutical compositions containing them” (Dr. Reddy's Research Foundation, priority 2000, dated 2007)
